Measured values as given in US20250129028A1, “COMPOUNDS AND METHODS FOR YAP/TEAD MODULATION AND INDICATIONS THEREFOR” (Opna Bio SA, priority 2022, published 2025).

system: TEAD-dependent transcription; assay: TEAD-dependent transcription cell-based reporter assay (MSTO-211H+12XGTIIC luciferase); set-up: species or system human; details: Homo sapiens; MSTO-211H+12XGTIIC cell line, luciferase signal normalized to cell viability, 24 hours compound incubation; read-out: MSTO-211H GMean IC50 (uM) Cell Assay Reporter Cell Variant: TEAD
How it was run: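 MSTO-211H mesothelioma cells stably carrying a 12xGTIIC TEAD-response-element luciferase reporter, treated with serial compound dilutions for 24 h at 37 °C. Luminescence normalized to CellTiter-Fluor viability signal; % inhibition versus DMSO and 20 μM K-975 controls, IC50 by nonlinear regression.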

Compound | IC50 [µM]
O=C1NC(=O)C(CC(=O)N2CCc3ccc(Oc4ccc(C(F)(F)F)cc4)cc3C2)N1 (centres unmarked) [P-0083, 5-(2-oxo-2-(7-(4-(trifluoromethyl)phen-oxy)-3,4-dihydroisoquin-olin-2(1H)-yl)ethyl)imid-azolidine-2,4-dione] | 0.001 to 10
CS(=O)(=O)c1ccc(C(=O)N2CCc3ccc(Oc4ccc(C(F)(F)F)cc4)cc3C2)s1 [P-0084, (5-(methylsulfonyl)thio-phen-2-yl)(7-(4-(trifluoro-methyl)phenoxy)-3,4-dihydroisoquinolin-2(1H)-yl)methanone] | 0.001 to 10
CS(=O)(=O)CCC(=O)N1CCc2ccc(Oc3ccc(C(F)(F)F)c(F)c3)cc2C1 [P-0085, 1-(7-(3-fluoro-4-(trifluoromethyl)phen-oxy)-3,4-dihydroisoquin-olin-2(1H)-yl)-3-(methyl-sulfonyl)propan-1-one] | 0.001 to 10
O=C(CC1CCOC1)N1CCc2ccc(Oc3ccc(C(F)(F)F)cc3)cc2C1 (centres unmarked) [P-0086, 2-(tetrahydrofuran-3-yl)-1-(7-(4-(trifluorometh-yl)phenoxy)-3,4-dihydro-isoquinolin-2(1H)-yl)-ethan-1-one] | 0.001 to 10
O=C(CC1CCOCC1)N1CCc2ccc(Oc3ccc(C(F)(F)F)cc3)cc2C1 [P-0087, 2-(tetrahydro-2H-pyran-4-yl)-1-(7-(4-(trifluoro-methyl)phenoxy)-3,4-dihydroisoquinolin-2(1H)-yl)ethan-1-one] | 0.001 to 10
O=C1CC(C(=O)N2CCc3ccc(Oc4ccc(C(F)(F)F)cc4)cc3C2)CN1 (centres unmarked) [P-0088, 4-(7-(4-(trifluorometh-yl)phenoxy)-1,2,3,4-tetrahydroisoquinoline-2-carbonyl)pyrrolidin-2-one] | 0.001 to 10
CS(=O)(=O)C12CC(C(=O)N3CCc4ccc(Oc5ccc(C(F)(F)F)cc5)cc4C3)(C1)C2 [P-0089, (3-(methylsulfonyl)-bicyclo[1.1.1]pentan-1-yl)(7-(4-(trifluoro-methyl)phenoxy)-3,4-dihydroisoquinolin-2(1H)-yl)methanone] | 0.001 to 10
CS(=O)(=O)CCC(=O)N1CCc2ccc(Oc3ccc(Cl)cc3)cc2C1 [P-0090, 1-(7-(4-chlorophenoxy)-3,4-dihydroisoquinolin-2(1H)-yl)-3-(methylsul-fonyl)propan-1-one] | 0.001 to 10
O=C(CCS(=O)(=O)C(F)(F)F)N1CCc2ccc(Oc3ccc(Cl)cc3)cc2C1 [P-0091, 1-(7-(4-chlorophenoxy)-3,4-dihydroisoquinolin-2(1H)-yl)-3-((trifluoro-methyl)sulfonyl)propan-1-one] | 0.001 to 10
Nc1nccc(C(=O)N2CCc3ccc(Oc4ccc(C(F)(F)F)cc4)cc3C2)n1 [P-0092, (2-aminopyrimidin-4-yl)-(7-(4-(trifluoromethyl)-phenoxy)-3,4-dihydroiso-quinolin-2(1H)-yl)meth-anone] | 0.001 to 10
Nc1ncc(CC(=O)N2CCc3ccc(Oc4ccc(C(F)(F)F)cc4)cc3C2)s1 [P-0093, 2-(2-aminothiazol-5-yl)-1-(7-(4-(trifluoromethyl)-phenoxy)-3,4-dihydroiso-quinolin-2(1H)-yl)ethan-1-one] | 0.001 to 10
CN(C)CCC(=O)N1CCc2ccc(Oc3ccc(C(F)(F)F)c(F)c3)cc2C1 [P-0094, 3-(dimethylamino)-1-(7-(3-fluoro-4-(trifluoro-methyl)phenoxy)-3,4-dihydroisoquinolin-2(1H)-yl)propan-1-one] | 0.001 to 10
CN1CCN(CCC(=O)N2CCc3ccc(Oc4ccc(C(F)(F)F)c(F)c4)cc3C2)CC1 [P-0095, 1-(7-(3-fluoro-4-(trifluoromethyl)phenoxy)-3,4-dihydroisoquinolin-2(1H)-yl)-3-(4-methylpiperazin-1-yl)propan-1-one] | 0.001 to 10
NC(=O)NCCC(=O)N1CCc2ccc(Oc3ccc(C(F)(F)F)cc3)cc2C1 [P-0096, 1-(3-oxo-3-(7-(4-(trifluoromethyl)phen-oxy)-3,4-dihydroisoquin-olin-2(1H)-yl)propyl)urea] | 0.001 to 10
CN1CC(C(=O)N2CCc3ccc(Oc4ccc(C(F)(F)F)c(F)c4)cc3C2)C1 [P-0097, (7-(3-fluoro-4-(trifluoro-methyl)phenoxy)-3,4-dihydroisoquinolin-2(1H)-yl)(1-methylazet-idin-3-yl)methanone] | 0.001 to 10
N=C(N)NCC(=O)N1CCc2ccc(Oc3ccc(C(F)(F)F)cc3)cc2C1 [P-0098, 1-(2-oxo-2-(7-(4-(trifluoromethyl)phen-oxy)-3,4-dihydroiso-quinolin-2(1H)-yl)-ethyl)guanidine] | 0.001 to 10
O=C(Cc1cn[nH]c1)N1CCc2ccc(Oc3ccc(C(F)(F)F)cc3)cc2C1 [P-0099, 2-(1H-pyrazol-4-yl)-1-(7-(4-(trifluoromethyl)phen-oxy)-3,4-dihydroisoquin-olin-2(1H)-yl)ethan-1-one] | 10 to 100
O=C(CNC(=O)C(F)(F)F)N1CCc2ccc(Oc3ccc(C(F)(F)F)cc3)cc2C1 [P-0100, 2,2,2-trifluoro-N-(2-oxo-2-(7-(4-(trifluoromethyl)-phenoxy)-3,4-dihydroiso-quinolin-2(1H)-yl)ethyl)-acetamide] | 0.001 to 10

Compound | IC50 [µM]
CS(=O)(=O)NCCC(=O)N1CCc2ccc(Oc3ccc(C(F)(F)F)cc3)cc2C1 [P-0101, N-(3-oxo-3-(7-(4-(trifluoromethyl)phen-oxy)-3,4-dihydroisoquin-olin-2(1H)-yl)propyl)-methanesulfonamide] | 0.001 to 10
NS(=O)(=O)N1CC(C(=O)N2CCc3ccc(Oc4ccc(C(F)(F)F)cc4)cc3C2)C1 [P-0102, 3-(7-(4-(trifluoromethyl)-phenoxy)-1,2,3,4-tetra-hydroisoquinoline-2-carbonyl)azetidine-1-sulfonamide] | 0.001 to 10
O=C(c1cc(C(F)F)[nH]n1)N1CCc2ccc(Oc3ccc(C(F)(F)F)cc3)cc2C1 [P-0103, (5-(difluoromethyl)-1H-pyrazol-3-yl)(7-(4-(trifluoromethyl)phen-oxy)-3,4-dihydroisoquin-olin-2(1H)-yl)methanone] | 0.001 to 10
NC(=O)NCC(=O)N1CCc2ccc(Oc3ccc(Cl)cc3)cc2C1 [P-0104, 1-(2-(7-(4-chlorophen-oxy)-3,4-dihydroisoquin-olin-2(1H)-yl)-2-oxoeth-yl)urea] | 0.001 to 10
CN1CCC(C(=O)N2CCc3ccc(Oc4ccc(C(F)(F)F)c(F)c4)cc3C2)C1 (centres unmarked) [P-0105, (7-(3-fluoro-4-(trifluoro-methyl)phenoxy)-3,4-dihydroisoquinolin-2(1H)-yl)(1-methylpyr-rolidin-3-yl)methanone] | 0.001 to 10
N=C(N)NCCC(=O)N1CCc2ccc(Oc3ccc(C(F)(F)F)cc3)cc2C1 [P-0106, 1-(3-oxo-3-(7-(4-(trifluoromethyl)phen-oxy)-3,4-dihydroisoquin-olin-2(1H)-yl)propyl)-guanidine] | 0.001 to 10
Nc1nc(C(=O)N2CCc3ccc(Oc4ccc(C(F)(F)F)cc4)cc3C2)c[nH]1 [P-0107, (2-amino-1H-imidazol-4-yl)(7-(4-(trifluoromethyl)-phenoxy)-3,4-dihydroiso-quinolin-2(1H)-yl)meth-anone] | 0.001 to 10
O=C(c1cocn1)N1CCc2ccc(Oc3ccc(C(F)(F)F)cc3)cc2C1 [P-0108, oxazol-4-yl(7-(4-(trifluoromethyl)phen-oxy)-3,4-dihydroisoquin-olin-2(1H)-yl)methanone] | 0.001 to 10
CN1CCC(C(=O)N2CCc3ccc(Oc4ccc(C(F)(F)F)c(F)c4)cc3C2)CC1 [P-0109, (7-(3-fluoro-4-(trifluoro-methyl)phenoxy)-3,4-dihydroisoquinolin-2(1H)-yl)(1-methylpiper-idin-4-yl)methanone] | 0.001 to 10
CN(C)CCCC(=O)N1CCc2ccc(Oc3ccc(C(F)(F)F)c(F)c3)cc2C1 [P-0110, 4-(dimethylamino)-1-(7-(3-fluoro-4-(trifluoro-methyl)phenoxy)-3,4-dihydroisoquinolin-2(1H)-yl)butan-1-one] | 0.001 to 10
CN(C)C1CC(C(=O)N2CCc3ccc(Oc4ccc(C(F)(F)F)c(F)c4)cc3C2)C1 (centres unmarked) [P-0111, (3-(dimethylamino)cyclo-butyl)(7-(3-fluoro-4-(trifluoromethyl)phen-oxy)-3,4-dihydroisoquin-olin-2(1H)-yl)methanone] | 0.001 to 10
CC(C)(C)OC(=O)NCC(=O)N1CCc2ccc(Oc3ccc(C(F)(F)F)c(F)c3)cc2C1 [P-0112, tert-butyl (2-(7-(3-fluoro-4-(trifluoromethyl)phen-oxy)-3,4-dihydroisoquin-olin-2(1H)-yl)-2-oxoeth-yl)carbamate] | 0.001 to 10
NCC(=O)N1CCc2ccc(Oc3ccc(C(F)(F)F)c(F)c3)cc2C1 [P-0113, 2-amino-1-(7-(3-fluoro-4-(trifluoromethyl)phen-oxy)-3,4-dihydroisoquin-olin-2(1H)-yl)ethan-1-one] | 0.001 to 10
O=C(CNS(=O)(=O)C(F)(F)F)N1CCc2ccc(Oc3ccc(C(F)(F)F)c(F)c3)cc2C1 [P-0114, 1,1,1-trifluoro-N-(2-(7-(3-fluoro-4-(trifluoromethyl)phenoxy)-3,4-dihydroisoquinolin-2(1H)-yl)-2-oxoethyl)methanesulfonamide] | 0.001 to 10
C=CC(=O)NCC(=O)N1CCc2ccc(Oc3ccc(C(F)(F)F)c(F)c3)cc2C1 [P-0115, N-(2-(7-(3-fluoro-4-(trifluoromethyl)phen-oxy)-3,4-dihydroisoquin-olin-2(1H)-yl)-2-oxoeth-yl)acrylamide] | 0.001 to 10
CN(C)S(=O)(=O)NCC(=O)N1CCc2ccc(Oc3ccc(C(F)(F)F)c(F)c3)cc2C1 [P-0116, N,N-dimethyl-N′-(2-(7-(3-fluoro-4-(trifluoro-methyl)phenoxy)-3,4-dihydroisoquinolin-2(1H)-yl)-2-oxoethyl)-sulfamide] | 0.001 to 10
O=C(CNS(=O)(=O)C1CC1)N1CCc2ccc(Oc3ccc(C(F)(F)F)c(F)c3)cc2C1 [P-0117, N-(2-(7-(3-fluoro-4-(trifluoromethyl)phen-oxy)-3,4-dihydroisoquin-olin-2(1H)-yl)-2-oxoeth-yl)cyclopropanesulfon-amide] | 0.001 to 10
